The record followed here is patent publication US11802135B2, “Lysophosphatidic acid derivative” (MITSUBISHI TANABE PHARMA CORPORATION, priority 2021, dated 2023).

Molecules are shown by their SMILES. Structures can show the parent of a compound that is named as a salt. Where two headings read alike, the source gives them in different places.

The target in one data set is T1, human LPA1 receptor (Homo sapiens, UniProt Q92633).
T1 construct: expressed in transfected cells; host or cells: rat hepatocellular carcinoma cell line RH7777 (made 'similarly' to the LPA4 line)
T1 sequence (Q92633 whole entry): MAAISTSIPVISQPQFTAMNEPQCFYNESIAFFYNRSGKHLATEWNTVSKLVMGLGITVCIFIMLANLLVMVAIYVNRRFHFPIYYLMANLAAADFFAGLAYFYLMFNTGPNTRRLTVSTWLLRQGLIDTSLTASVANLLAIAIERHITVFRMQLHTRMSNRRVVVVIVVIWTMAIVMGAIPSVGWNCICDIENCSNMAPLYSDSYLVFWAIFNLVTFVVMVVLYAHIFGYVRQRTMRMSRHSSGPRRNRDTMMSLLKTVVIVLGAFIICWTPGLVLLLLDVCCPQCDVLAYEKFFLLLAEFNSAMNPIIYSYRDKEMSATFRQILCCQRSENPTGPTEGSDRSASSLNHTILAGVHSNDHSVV
The data set can be described thus: LPA1/SRE-luc reporter assay in RH7777 cells stably expressing human LPA1 receptor and SRE-Luc2. It is filed as cell-based. Here is the method: (§1) A stably expressing cell line that constantly expresses the human LPA4 receptor and SRE-Luc2 was established by the gene targeting introduction method of the rat hepatocellular carcinoma cell line RH7777 into rRosa26 site. Similarly, stably expressing cell lines for human LPA1 receptor and SRE-Luc2 were also established. Each cell line was seeded on a collagen-coated dish and maintained in culture, and cells were collected with trypsin EDTA and the required number (5×10^3 cells/well) was seeded on a 96-well plate. After culturing overnight at 37° C., LPA (Avanti Polar Lipids, Inc.) or each Example compound diluted with an assay medium added or not added with BSA was added, and the cells were cultured at 37° C. for 6 hr. Thereafter, a luciferase detection reagent (Bright-Glo, Promega) was added, and the chemiluminescence amount was quantified with an Envision (registered trade mark) multi-label counter (PerkinElmer) and used as an index of agonist activity.
(§2) The EC50 value of LPA or each Example compound was calculated using the […] Graph pad Prism for Windows ver.5.02 and ver.7.04. % Emax was expressed as the ratio of the maximum response (Emax) of LPA or each Example compound to the maximum response (Emax) of the positive control compound VPC 31144S (N-{(1S)-2-hydroxy-1-[(phosphonooxy)methyl]ethyl}(9Z) cctadec-9-enamide), with the Emax of the positive control compound VPC 31144S as 100%.
For orientation: Reporter assays use an easily measured gene product as a stand-in for the process of interest.

In another data set the test system is Balb/c nu/nu mouse. In words: Gel blood flow ratio in mice transplanted with Matrigel containing basicFGF. To be noted: 3 mg/kg tail vein once per day, day 5 to 7 after transplantation; vs solvent administration group, t-test p<0.01. It is filed as in vivo. Here is the method: A 5-week-old male Balb/c nu/nu mouse (CLEA Japan, Inc.) was subcutaneously transplanted with 500 μL of Matrigel (Corning) admixed with recombinant mouse basicFGF (Biobyt Ltd.) to a final concentration of 200 ng/mL. The test compound was dissolved in a 50% aqueous ethanol solution at a concentration of 10 mg/mL to give a stock solution, diluted with phosphate-buffered saline (PBS) immediately before administration, and used for consecutive administration into the tail vein of mouse at a dose of 3 mg/kg once per day from the 5th day to the 7th day of the transplantation. On the 7th day of transplantation, after 4 hours from the administration of the test compound, Genhance750 (PerkinElmer) was administered to the tail vein, and 20 min later under isoflurane anesthesia, whole body fluorescence at 800 nm was imaged using an in vivo analyzer (IVIS Spectrum, PerkinElmer) at an excitation wavelength of 745 nm. The gel blood flow ratio was calculated by dividing the radiance of Matrigel by the radiance of the auricle.

A further data set addresses T2, human LPA4 receptor (Homo sapiens, UniProt Q99677).
T2 construct: expressed in transfected cells; host or cells: rat hepatocellular carcinoma cell line RH7777, targeted integration at the rRosa26 site
The data set can be described thus: LPA4/SRE-luc reporter assay in RH7777 cells stably expressing human LPA4 receptor and SRE-Luc2. Format: cell-based. Here is the method:
as §1, §2

Data set [1] can be described thus: Evaluation of chemical stability, preserved at 60° C. (sealed) for a week, UPLC. It is filed as physicochemical. Here is the method: About 0.5 mg of each of test sample (lysophosphatidic acid (LPA) and Example compound 16) preserved at 60° C. (sealed) for a week and non-preserved sample (at the start of testing) was weighed, and dissolved in a mixed solution (1 mL) of acetonitrile/water (1:1) to prepare test solutions. Test was performed by the liquid chromatographic method under the following conditions, and individual peak area % was determined. It was measured by Waters ACQUITY UPLC under the following conditions. • Detector: photodiode array (measurement wavelength 220 nm) • Column: Waters ACQUITY BEH C18 (2.1 mm×100 mm, 1.7 μm) • Column temperature: constant temperature around 40° C. • Mobile phase: Solution A; […] ammonium acetate in water (pH 8.5), • Solution B; […] ammonium acetate in acetonitrile/water (17:3) (pH8.5) • Concentration gradient control: B % 2→100% (15 min) • Flow rate: 0.5 mL/min • Injection volume: […] <Experimental Results>

Data set [2] deals with mouse lung cancer cell line LLC-1. The data set can be described thus: Tumor volume in mice transplanted with LLC-1, combination with paclitaxel. Format: in vivo. Here is the method: An 8-week-old female […] mouse (Nippon SLC) was subcutaneously transplanted with 1×10^6 cells/100 μL of mouse lung cancer cell line LLC-1 suspended in D-MEM medium containing 50% Matrigel (Corning). On the 9th day after transplantation of the cell line, 8 mice were grouped such that the tumor volume and body weight were uniform (Day 0). The tumor volume was calculated by measuring the minor axis and the major axis of the tumor with a vernier caliper (minor axis x minor axis x major axis/2). Example compound 16 was intraperitoneally administered every day from Day 0 at a dose of 30 mg/kg. As an existing anticancer drug, paclitaxel (paclitaxel injection, Pfizer) was intraperitoneally administered to mice at a dose of 20 mg/kg twice in total on Day 3 and Day 10. The tumor volume of each group was calculated every other day from Day 0 to Day 15. Phosphate-buffered saline in the same amount as the drug solution was administered to the solvent administration group.

[3] abbreviates: BSA not added, read-out: LPA1/SRE-luc EC50.
The mark [4] stands for this setting: BSA not added, read-out: LPA4/SRE-luc EC50.
[5] abbreviates: RH7777, read-out: LPA4/SRE-luc % Emax.
The mark [6] stands for this setting: BSA added, read-out: LPA1/SRE-luc EC50.
Where [7] appears, read: BSA added, read-out: LPA4/SRE-luc EC50.
Where [8] appears, read: RH7777, BSA added, Emax of positive control VPC 31144S as 100%, read-out: LPA4/SRE-luc % Emax.

T2 sequence (Q99677 whole entry): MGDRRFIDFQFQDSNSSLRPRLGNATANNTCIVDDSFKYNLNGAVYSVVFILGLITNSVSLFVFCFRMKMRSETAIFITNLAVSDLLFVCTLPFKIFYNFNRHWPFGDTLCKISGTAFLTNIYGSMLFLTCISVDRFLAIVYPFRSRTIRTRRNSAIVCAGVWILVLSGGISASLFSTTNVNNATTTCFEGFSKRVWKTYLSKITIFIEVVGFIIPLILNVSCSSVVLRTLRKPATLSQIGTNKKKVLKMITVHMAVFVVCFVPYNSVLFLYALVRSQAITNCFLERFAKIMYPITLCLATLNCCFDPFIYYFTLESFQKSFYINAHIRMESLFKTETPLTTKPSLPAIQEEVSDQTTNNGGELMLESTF

Consider `CCc1ccc(CCCCCCCCC(=O)N2CC(OP(=O)(O)O)C2)cc1` [Example 16, 1-[9-(4-Ethylphenyl)nonanoyl]azetidin-3-yl dihydrogen phosphate], for which the EC50 at human LPA1 receptor (setting [3]) was over 10000 nM; on human LPA4 receptor (setting [4]) it was 12 nM. In the data set with Balb/c nu/nu mouse, the “gel blood flow ratio” value was “significantly increased”. Besides, the Emax at human LPA4 receptor (setting [5]) was found to be 162%.
Regarding `CCc1ccc(CCCCCCCCC(=O)N2CC(OP(=O)(O)O)C2)cc1` [Example compound 16, 1-[9-(4-Ethylphenyl)nonanoyl]azetidin-3-yl dihydrogen phosphate], the “chemical stability in comparison with LPA” value in data set [1] (60° C. (sealed) for a week) is on record as “high chemical stability”. For the same compound, the “total ratio (%) of increment of related substances” value in data set [1] (60° C., humidity without artificial control, 1 week) is on record as 1.29%. Besides, the “tumor volume on Day 15” value in data set [2] (30 mg/kg i.p. every day combined with paclitaxel 20 mg/kg, vs paclitaxel alone group, t-test p<0.01) is on record as “further reduced significantly”.
Turning to `CCCCc1ccc(CCCCCCCCC(=O)N2CC(OP(=O)(O)O)C2)cc1` [Example compound 70, 1-[9-(4-Butylphenyl)nonanoyl]azetidin-3-yl dihydrogen phosphate ammonium salt], the EC50 at human LPA1 receptor (setting [3]) is over 10000 nM; on human LPA4 receptor (setting [4]), under 41 nM. Also, the “gel blood flow ratio” value with Balb/c nu/nu mouse is “significantly increased”. Moreover, the Emax on human LPA4 receptor (RH7777, BSA not added, Emax of positive control VPC 31144S as 100%, read-out: LPA4/SRE-luc % Emax) was found to be 239%.
Consider `O=C(CCCCCCCCc1ccc(-c2ccccc2)cc1)N1CC(OP(=O)(O)O)C1` [Example compound 82, 1-[9-(Biphenyl-4-yl)nonanoyl]azetidin-3-yl dihydrogen phosphate], for which the values for the EC50 at human LPA1 receptor (setting [6]) and at human LPA4 receptor (setting [7]) were over 10000 nM and 1.9 nM, respectively. In addition, the “gel blood flow ratio” value in the data set on Balb/c nu/nu mouse is listed as “significantly increased”. Further, the Emax at human LPA4 receptor (setting [8]) was found to be 129%.
Turning to `CC(C)(C)c1ccc(CCCCCCCCC(=O)N2CC(OP(=O)(O)O)C2)cc1` [Example compound 84, 1-[9-(4-tert-Butylphenyl)nonanoyl]azetidin-3-yl dihydrogen phosphate], the EC50 on human LPA1 receptor (setting [6]) is over 3000 nM; on human LPA4 receptor (setting [7]), 4.1 nM. Moreover, in the data set on Balb/c nu/nu mouse, the “gel blood flow ratio” value is “significantly increased”. The Emax on human LPA4 receptor (setting [8]) worked out at 94%.
As to `COc1ccc(CN(CCOP(=O)(O)O)C(=O)CCCCCc2cccc(CCCCC3CCCCC3)c2)cc1` [Example compound 129, 2-[{6-[3-(4-Cyclohexylbutyl)phenyl]hexanoyl}(4-methoxybenzyl)amino]ethyl dihydrogen phosphate ammonium salt], the values for the EC50 at human LPA1 receptor (setting [6]) and at human LPA4 receptor (setting [7]) were over 10000 nM and under 41 nM, respectively. For the same compound, the Emax at human LPA4 receptor (setting [8]) is 120%.
On to `CCCCCCCCCCCOc1cccc(-c2ccnc(NC[C@@H](C)OP(=O)(O)O)c2)c1` [Example compound 133, (2R)-1-({4-[3-(Undecyloxy)phenyl]pyridin-2-yl}amino)propan-2-yl dihydrogen phosphate], for which the EC50 on human LPA1 receptor (setting [6]) is over 10000 nM; on human LPA4 receptor (setting [7]) it was under 41 nM. For the same compound, the Emax on human LPA4 receptor (setting [8]) came out at 101%.
For `CCCCCCCCCCCOc1cccc(-c2ccnc(NC[C@@H](C)OP(=O)(O)O)n2)c1` [Example compound 134, (2R)-1-({4-[3-(Undecyloxy)phenyl]pyrimidinyl}amino)propan-2-yl dihydrogen phosphate], the EC50 at human LPA1 receptor (setting [6]) is over 10000 nM; on human LPA4 receptor (setting [7]) it was under 41 nM. Moreover, the Emax on human LPA4 receptor (setting [8]) turned out to be 87%.
As for `CCCCCCCCCCCOc1cccc(-c2ccnc(NC[C@@H](C)OP(O)(O)=S)c2)c1` [Example compound 138, O-[(2R)-1-({4-[3-(Undecyloxy)phenyl]pyridin-2-yl}amino)propan-2-yl] dihydrogen phosphorothioate-ammonium salt], the EC50 on human LPA1 receptor was over 10000 nM; at human LPA4 receptor it was under 41 nM. For the same compound, the Emax on human LPA4 receptor (setting [5]) is 73%.
As to `CCCCCCCCCCCOc1cccc(-c2ccnc(N[C@@H]3CCC[C@@H]3OP(=O)(O)O)c2)c1` [Example compound 142, (1S,2R)-2-({4-[3-(Undecyloxy)phenyl]pyridin-2-yl}amino)cyclopentyl dihydrogen phosphate ammonium salt], the EC50 on human LPA1 receptor (setting [6]) is over 10000 nM; at human LPA4 receptor (setting [7]) it was 43 nM. For the same compound, at human LPA4 receptor (setting [8]), the Emax worked out at 103%.
Turning to `CC(=O)O[C@H]1C(=O)[C@@]2(C)[C@H]([C@H](OC(=O)c3ccccc3)[C@]3(O)C[C@H](OC(=O)[C@H](O)[C@@H](NC(=O)c4ccccc4)c4ccccc4)C(C)=C1C3(C)C)[C@]1(OC(C)=O)CO[C@@H]1C[C@@H]2O` [paclitaxel, reference compound], in data set [2] (paclitaxel alone 20 mg/kg i.p. Day 3 and Day 10, vs solvent administration group, t-test p<0.05), the “tumor volume on Day 15” value was “significantly smaller”.
